These results are taken from US20010007657A1, “Compositions and methods for manipulating glial progenitor cells and treating neurological deficits” (priority 1997, published 2001).

Series [1] relates to TGFα mRNA. The series is described as follows: In situ hybridization of TGFα mRNA after nigral 6-OHDA lesion and/or striatal TGFα infusion. To be noted: unlesioned animals, striatal TGFα infusion two weeks, vs contralateral or normal striata. In kind it is in vivo, rat. An excerpt: Adult male Sprague-Dawley rats weighing 250-300 grams were obtained from Simonsen (Gilroy, Calif.) and assigned to one of five treatment groups: (1) striatal TGFα infusion, nigral 6-OHDA lesion (hereafter, “lesion”); (2) TGFα infusion, no lesion; (3) artificial cerebrospinal (aCSF) infusion, lesion; (4) aCSF infusion, no lesion; (5) no infusion, no lesion. Four to eight animals were used per experimental group. The animals were monitored after each surgical procedure until fully recovered and maintained at all other times in a temperature and humidity controlled vivarium.
Rats were anesthetized with 8 mg xylazine and 100 mg ketamine per kilogram body weight. […] The success and extent of 6-OHDA lesions were monitored by tyrosine hydroxylase (TH) mRNA in situ hybridization in the midbrain. TH is the rate-limiting enzyme in the dopamine synthetic pathway and is a common marker for dopamine-producing neurons. One animal with an incomplete lesion (retaining significant numbers of nigral TH-IR cells) was excluded from the study and is not included in the total number of animals.
Osmotic minipumps (model 2002, Alzet, Inc.) were implanted four to five weeks post-lesion. […] The minipump itself was placed subcutaneously in the interscapular region.
At the end of the infusion period, animals were sacrificed by decapitation. Their brains were quickly removed, frozen in isopentane at −20° C., and stored at −70° C. Coronal cryostat sections were cut at 20 μm and thaw-adhered to Vectabond™ (Vector Labs, Inc.) coated slides in ordered anterior-to-posterior rows. The sections were postfixed with 4% paraformaldehyde in 0.1 M phosphate buffer (pH 7.4) for one hour, rinsed in phosphate buffer and air dried. Sections were stored with desiccant at −20° C. until processed.
TGFα mRNA probes were generated from a 550 nucleotide XbaI/BamHI cDNA fragment from the 5′ end of rat TGFα subcloned into pGEM 7Zf (Promega, Inc.). Antisense and sense probes were transcribed with SP6 and T7 polymerases, respectively. […]

Series [2] relates to stem and neuroprogenitor cells in the SVZ. The series is described as follows: Morphological studies of proliferation, directed migration and differentiation induction (Example 3). In kind it is in vivo, rat.
Series [3] relates to 6OHDA lesioned animals.
Where [4] appears, read: infusion into the lateral ventricle, 6-OHDA-lesioned.

With “TGFα: transforming growth factor alpha polypeptide, EGF-family growth factor that binds the EGF receptor; infused into rat brain”, the “TGFα mRNA hybridization in the infused striatum” value in series [1] is on record as “unchanged”. In addition, the “effectiveness in inducing ridge formation” value in series [2] (10 ug dose) is reported as “minimally less effective”; in series [2] (50 and 100 ug dose), “equally effective”. For the same substance, in series [2] (4 to 6 days of continuous infusion, lesioned animals), the “thickening of the SVZ” value was “pronounced thickening of the SVZ”. For the same substance, the “5′BrdU incorporation into the SVZ” value in series [2] (first three days of infusion) is “massively increased incorporation”. Also, in series [2] (from the fourth day of infusion), the “nestin staining of SVZ and ridge cells” value is reported as “nestin-positive”. Besides, the results for the SVZ proliferation entry in series [2] (setting [4]) and in series [2] (infusion into the septum) were “temporary proliferation of SVZ cells” and “massive proliferation of the SVZ”, respectively. Also, in series [2] (setting [4]), the migratory ridge entry was “no migratory ridge”. In addition, in series [2] (starting at 14 days of infusion), the “β-III tubulin (neuronal lineage) staining” value is recorded as “β-III tubulin positive cells were seen”. The “tyrosine hydroxylase (TH) positive cells in the striatum” value in series [2] (third and fourth week of infusion, 6-OHDA-lesioned) was “increasing numbers of TH positive cells”. Further, in series [3] (animals receiving the TGFα infusions), the apomorphine-induced rotations result is reported as “significant reduction”. Moreover, in series [3] (infusion 14 days after 6-OHDA lesion, 14-day striatal infusion, p<0.05), the “improvement in rotational behavior, TGFα versus aCSF-treated control animals” value was 38%. Besides, the “animals not exhibiting rotational behavioral asymmetry following apomorphine” value in series [3] (infusion contemporaneous with 6-OHDA lesion, entire four-week period) is 10 of the 11. In addition, the “other motor behaviors (exploratory, consummatory behavior)” value in series [3] (rat, in vivo) is “did not appear to be adversely affected”.
